Columns and labels:
APP = test: [35S] metabolic labeling of APP in 7PA2 CHO cells; assay type: cell-based
Method: FIGS. 5A-5D. […] Cells were treated for 18 hours, media was then replaced and conditioned in the presence of treatments for 24 hours before harvesting for ELISA assay. Error bars represent SEM for n=3 replicates. Statistics calculated from one-tailed Student's t-test. *p<0.05, **p<0.01, ***p<0.001 (FIG. 5A). Quantification of media and lysate immunoblots from 474 treatment (10 μM) of APP. Error bars represent Standard Deviation for n=3 replicates. Statistics calculated from one-tailed Student's t-test. *p<0.05, **p<0.01 ***p<0.001 (FIG. 5B). […] Statistics calculated from one-tailed Student's t-test. *p<0.05, **p<0.01, ***p<0.001 (FIG. 5C). […] Statistics calculated from one-tailed Student's t-test. *p<0.05, **p<0.01, ***p<0.001 (FIG. 5D).
[^35S] metabolic labeling experiments were performed as previously described^8. […] Band intensities were quantified by densitometry in ImageQuant. Fraction secreted was calculated using the equation: fraction secreted=[extracellular [^35S]-APP signal at t/(extracellular [^35S]-APP signal at t=0+intracellular[^35S]-APP signal at t=0)]. Fraction remaining was calculated using the equation: [(extracellular [^35S]-APP signal at t+intracellular [^35S]-APP signal at t)/(extracellular [^35S]-APP signal at t=0+intracellular [^35S]-APP signal at t=0)].

[1] = tested on: IRE1-specific target genes; test: RT-PCR of Xbp1s and Erdj4 in adipose tissue after single IP dose; assay type: in vivo
Excerpt: (§1) FIGS. 7A-7D. RT-PCR of Xbp1s and the IRE1/XBP1s target gene Erdj4 from adipose tissue post single IP dose of 474 (FIG. 7A). Liver RNAseq profiles of ATF6, IRE1 and PERK target genes expressed as log 2 fold change of chronic 474 treatment compared to vehicle (FIG. 7B). Body weight (FIG. 7C) and food intake (FIG. 70) over 6 weeks of dosing.
Obesity has grown into a major public health crisis over the past few decades, enhancing the risk of numerous complications such as type 2 diabetes (T2D). […] of Xbp1, the key transcription factor downstream of IRE1, causes insulin resistance through increased accumulation of ER stress^33. Conversely, overexpression of active Xbp1s in the livers of ob/ob mice restores insulin signaling and reduces gluconeogenesis through the targeted degradation of a key metabolic regulator, FoxO1^55. IRE1 function is also critical in the maintenance of pancreatic β-cell function and glucose stimulated-insulin secretion^56. Although these genetic studies highlight the therapeutic potential of targeting the IRE1-XBP1s signaling axis for T2D and related metabolic disorders, no highly-selective pharmacological IRE1 activators have been available until the present disclosure's provision for screening and optimization of a lead molecule, 474.

ATF6 target genes = test: Liver RNA sequencing of DIO mice, ATF6 targets; assay type: in vivo, mouse; settings: once-daily IP 50 mg/kg, 6 weeks
Method: as §1
(§2) To test the efficacy of pharmacologic IRE1 activation in mitigating T2D, we chronically administered 474 by once-daily IP injections at 50 mg/kg for a period of 6 weeks to Diet-Induced Obese (DIO) mice, a model of T2D.

liver = test: Hepatic triglyceride content and gluconeogenic gene expression in DIO mice; assay type: in vivo, mouse; settings: 6 weeks post dosing
Excerpt: (§3) FIGS. 8A-8E. Oral glucose tolerance test in DIO mice treated with either Vehicle or 474 for 3 weeks (n=8) (FIG. 8A). Serum glucose and insulin levels post 4 weeks of dosing with 474 or vehicle (FIG. 8B). Glucose stimulated insulin secretion in islets isolated from 474 or vehicle treated mice. (FIG. 8C). Hepatic triglyceride content (FIG. 8D) and gene expression profiles of gluconeogenic genes (FIG. 8E) at 6 weeks post dosing.
(§4) This effect can be rationalized, at least in part, by enhanced pancreatic f-cell function in 474-treated […], as shown by our studies in isolated pancreatic islets from vehicle- and 474-treated mice. […] Given the well-documented link between IRE1 and hepatic metabolism in T2D^55, we also examined markers of liver function after 474 treatment. We found reduced liver triglyceride accumulation in 474-treated mice relative to controls (FIG. 80).

pancreatic islets = test: Glucose stimulated insulin secretion in islets isolated from treated mice; assay type: in vivo, mouse; settings: relative to vehicle-treated controls
Excerpt: as §3, §4

[2] = tested on: Diet-Induced Obese (DIO) mice; test: Glucose tolerance, serum glucose and insulin in DIO mice; assay type: in vivo, mouse; settings: 4 weeks of dosing
Excerpt: as §3, §2, §4

Cc1ccc(OCCN(C)C(=O)Cn2cc(NC(=O)CCOc3ccccc3)cn2)cc1 [Compound 474]
APP degradation (APP): increased APP degradation | secretion of soluble APP into the media (APP): reduced the secretion of soluble APP | IRE1-specific target genes in adipose tissue [1]: induction | bioavailability [1]: readily bioavailable | ATF6 transcriptional response in liver (ATF6 target genes): modest induction | expression of genes associated with glucose metabolism in liver (liver): reductions | liver triglyceride accumulation (liver; relative to controls): reduced | insulin secretion from islets upon stimulation with glucose (pancreatic islets): dramatic increase | basal insulin levels [2]: more prominent decrease | fasting glucose [2]: significant reduction
